From PMC11085086, “Microwave-Assisted Atom Transfer Radical Cyclization in the Synthesis of 3,3-Dichloro-γ- and δ-Lactams from N-Alkenyl-Tethered Trichloroacetamides Catalyzed by RuCl2(PPh3)3 and Their Cytotoxic Evaluation” (Molecules, 2024)

Legend:
[1] = Hemolysis assay with human erythrocyte suspension; assay type: cell-based; conditions: human, washed human erythrocyte suspension, PBS pH 7.4, read-out: degree of hemolysis
Protocol: (§1) Human blood samples were obtained from the Banc de Sang i Teixits de Barcelona (Spain) from the Catalan Department of Health. Blood was deposited in tubes with the anticoagulant EDTA-K3. Blood samples were centrifuged at 3000 rpm and 4 °C for 10 min (Megafuge 2.0 R. Heraeus Instruments, Hanau, Germany) to induce sedimentation. Plasma was extracted with a Pasteur pipette. Next, the residual pellet was washed with PBS at pH 7.4. This procedure was repeated three times to remove residual leukocytes and platelets and to concentrate the erythrocytes. Following the last wash, the erythrocyte suspension was diluted (1:1) in PBS at pH 7.4 to obtain a suitable erythrocyte suspension (cell density of 8 × 10^9 cell/mL).
(§2) The hemolysis assay determined the capability of different compounds to induce the hemolysis of the erythrocyte membrane. Stock solutions of each compound at 1 mg/mL in PBS at pH 7.4 were prepared. Different volumes (10–80 μL) were placed in polystyrene tubes, and an aliquot of 25 µL of the erythrocyte suspensions was added to each tube. The final volume was 1 mL. The tubes were incubated at room temperature under rotatory conditions. Then, the tubes were centrifuged at 10,000 rpm for 5 min. The supernatants’ absorbance at 540 nm (Shimadzu UV-160A, Shimadzu, Duisburg, Germany) was compared with that of the positive (erythrocytes hemolyzed with distilled water) and negative (erythrocyte suspension in PBS at pH 7.4.) controls.
(§3) The degree of hemolysis was determined using the following equation:Hemolysis (%) = 100 × (Abs − Abs0)/(Abs100 − Abs0) where Abs, Abs0 and Abs100 are the absorbance of the test samples, of the suspension treated with isotonic phosphate–buffered saline (PBS) and of the suspension of complete hemolysis treated with distilled water, respectively.

human erythrocytes = assay: Hemolysis assay with human erythrocyte suspension; assay type: cell-based; conditions: 80 µg/mL, PBS pH 7.4
Protocol: as §1, §2, §3

[2] = system: murine Swiss albino fibroblasts (3T3); assay: Cell viability assay, MTT endpoint, 3T3; assay type: cell-based; conditions: Mus musculus, Fibroblast, 3T3, 24 h incubation, 10–250 µg/mL
Protocol: (§4) The murine Swiss albino fibroblasts (3T3), the human breast adenocarcinoma (MCF-7), the human epithelial carcinoma (HeLa) and the squamous cell carcinoma (A431) cell lines were obtained from Celltec UB. Cells were grown in DMEM medium (4.5 g/L glucose) supplemented with 10% (v/v) FBS, 2 mM L-glutamine, 100 U/mL penicillin and 100 µg/mL streptomycin at 37 °C, 5% CO2. Cells were routinely cultured in 75 cm^2 culture flasks and were trypsinized using trypsin–EDTA when the cells reached approximately 80% confluence. The trypan blue assay, which allows for a direct identification and enumeration of the live (unstained) and dead (blue) cells in the cell population, was used to evaluate the viability of the cells in the cell suspension obtained.
(§5) 3T3 (1 × 10^5 cells/mL), A431, HeLa and MCF-7 cells (5 × 10^4 cells/mL) were grown at defined densities in the 60 central wells of a 96-well plate. Cells were incubated for 24 h in 5% CO2 at 37 °C. Then, the spent medium was removed, and cells were incubated for 24 h with their corresponding compound solutions (1 mg/mL) previously diluted in a minimum amount of DMF (dimethylformamide) and then in DMEM medium supplemented with 5% FBS (100 µL) at the required concentration range (10–250 µg/mL). The viability of the cells upon incubation with the lactam derivatives was assayed using 2 different endpoints: NRU and MTT.
(§6) Only living cells can reduce the yellow tetrazolium salt 3-(4,5-dimethyl-2-thiazolyl)-2,5-diphenyltetrazolium bromide (MTT) to insoluble purple formazan crystals. After a 24 h incubation of the cells with their corresponding NPs, the medium was removed and 100 µL of MTT (Sigma-Aldrich, St. Louis, USA) in PBS (5 mg/mL) diluted 1:10 in culture medium without phenol red and without FBS (Lonza, Verviers, Belgium) was added to the cells. After 3 h of incubation, the medium was removed. Thereafter, 100 µL of DMSO (Sigma-Aldrich, St. Louis, MO, USA) was added to each well to dissolve the purple formazan crystals. Agitation and determination of the absorbance of the extracted solution were performed under the same conditions as described in NRU Assay section. Finally, the effect of each treatment was calculated as the percentage of tetrazolium salt’s reduction by viable cells relative to control cells (cells without any treatment).
(§7) The corresponding half-maximal inhibitory concentration (IC50) values for the different formulations as a function of the cell line and endpoint were determined from the fitting of concentration-dependent viability curves. The corresponding selectivity indexes toward tumoral cells were calculated using the following ratio: SI = IC50 (non-tumoral cell line)/IC50 (tumoral cell line) where 3T3 fibroblasts were used as close representative cells under non-tumoral conditions. Moreover, pseudo selectivity indexes toward tumoral cells were calculated considering the discrete cellular responses at the maximum tested concentration (250 µg/mL).

[3] = system: squamous cell carcinoma (A431) cell line; assay: Cell viability assay, MTT endpoint, A431; assay type: cell-based; conditions: for SI250 (selective toxicity at 250 µg/mL): A431 compared to 3T3, 250 µg/mL, 24 h; for IC50: Homo sapiens, A-431, 24 h, A431, 24 h incubation, 10–250 µg/mL
Protocol: as §4, §5, §6, §7

[4] = system: human epithelial carcinoma (HeLa) cell line; assay: Cell viability assay, MTT endpoint, HeLa; assay type: cell-based; conditions: HeLa; for IC50: Homo sapiens, 24 h, 24 h incubation, 10–250 µg/mL
Protocol: as §4, §5, §6, §7

[5] = system: human breast adenocarcinoma (MCF-7) cell line; assay: Cell viability assay, MTT endpoint, MCF-7; assay type: cell-based; conditions: for IC50: Homo sapiens, MCF7, 24 h incubation, 10–250 µg/mL
Protocol: as §4, §5, §6, §7

[6] = system: murine Swiss albino fibroblasts (3T3); assay: Cell viability assay, NRU endpoint, 3T3; assay type: cell-based; conditions: Mus musculus, Fibroblast, 3T3, 24 h incubation, 10–250 µg/mL
Protocol: as §4, §5
(§8) The neutral red uptake (NRU) assay is based on the accumulation of dye in the lysosomes of viable cells. After the cells were incubated for 24 h with the corresponding systems, the medium was removed, and the solutions were incubated with the NR dye (Sigma-Aldrich, St. Louis, MO, USA) solution (50 µg/mL) dissolved in the medium, without FBS and without phenol red (Lonza, Verviers, Belgium), for 3 h. Cells were then washed with sterile PBS, followed by the addition of 100 µL of a solution containing 50% absolute ethanol and 1% acetic acid in distilled water to extract the dye. To promote the total dissolution of the dye, plates were placed in a microtiter-plate shaker for 5 min at room temperature. The absorbance of the resulting solutions was measured at 550 nm (Bio-Rad 550 microplate reader, Bio-Rad California, Hercules, CA, USA). Finally, the effect of each treatment was calculated as the percentage of dye uptake by viable cells relative to the control cells (cells without any treatment).
as §7

[7] = system: squamous cell carcinoma (A431) cell line; assay: Cell viability assay, NRU endpoint, A431; assay type: cell-based; conditions: for IC50: Homo sapiens, A-431, 24 h, A431, 24 h incubation, 10–250 µg/mL; for SI250 (selective toxicity at 250 µg/mL): A431 compared to 3T3, 250 µg/mL, 24 h
Protocol: as §4, §5, §8, §7

[8] = system: human epithelial carcinoma (HeLa) cell line; assay: Cell viability assay, NRU endpoint, HeLa; assay type: cell-based; conditions: 24 h incubation, 10–250 µg/mL
Protocol: as §4, §5, §8, §7

[9] = system: human breast adenocarcinoma (MCF-7) cell line; assay: Cell viability assay, NRU endpoint, MCF-7; assay type: cell-based; conditions: for IC50: Homo sapiens, MCF7, 24 h incubation, 10–250 µg/mL; for SI250 (selective toxicity at 250 µg/mL): MCF-7 compared to 3T3, 250 µg/mL, 24 h
Protocol: as §4, §5, §8, §7

[10] = Cell viability assay, MTT endpoint, cell line not specified; assay type: cell-based; conditions: under discrete conditions, up to 250 µg/mL, read-out: minimum cell viability values
Protocol: as §4
3T3 (1 × 10^5 cells/mL), A431, HeLa and MCF-7 cells (5 × 10^4 cells/mL) were grown at defined densities in the 60 central wells of a 96-well plate. […]
Only living cells can reduce the yellow tetrazolium salt 3-(4,5-dimethyl-2-thiazolyl)-2,5-diphenyltetrazolium bromide (MTT) to insoluble purple formazan crystals. […] Agitation and determination of the absorbance of the extracted solution were performed under the same conditions as described in NRU Assay section. Finally, the effect of each treatment was calculated as the percentage of tetrazolium salt’s reduction by viable cells relative to control cells (cells without any treatment).

[11] = Cell viability assay, NRU endpoint, cell line not specified; assay type: cell-based; conditions: up to 250 µg/mL, read-out: minimum cell viability values
Protocol: as §4, §5, §8

| SMILES | melting point | hemolysis at 10 µg/mL [1] | degree of hemolysis (human erythrocytes) | IC50 [2] | SI250 (selective toxicity at 250 µg/mL) [3] | IC50 [3] | IC50 [4] | IC50 ([5]; MTT) | IC50 [6] | IC50 [7] | IC50 [8] | IC50 [9] | viability at 24 h [10] | viability at 24 h [11] | hemolysis at 80 µg/mL [1] | SI250 (selective toxicity at 250 µg/mL) ([5]; MTT, MCF-7 compared to 3T3, 250 µg/mL, 24 h) | SI250 (selective toxicity at 250 µg/mL) [7] | SI250 (selective toxicity at 250 µg/mL) [9] | effect on proliferation of tumor cells ([4]; under the assayed conditions) | effect on proliferation of tumor cells ([5]; MCF-7, MTT, under the assayed conditions) |
| --- | --- | --- | --- | --- | --- | --- | --- | --- | --- | --- | --- | --- | --- | --- | --- | --- | --- | --- | --- | --- |
| O=C1N(Cc2ccccc2)[C@@H]2CC[C@@H](Cl)[C@@H](C2)C1(Cl)Cl (racemic) [2k, (1RS,5RS,6RS)-2-Benzyl-4,4,6-trichloro-2-azabicyclo[3.3.1] nonan-3-one] | 116 to 118 °C |  |  |  |  |  |  |  |  |  |  |  |  |  |  |  |  |  |  |  |
| O=C1NCC(CCl)C1(Cl)Cl (stereo not drawn) [2b, 3,3-Dichloro-4-(chloromethyl)pyrrolidin-2-one] |  | 0.02% | remained stable | > 250 µg/mL | 1.1 | > 250 µg/mL | > 250 µg/mL | > 250 µg/mL | > 250 µg/mL | > 250 µg/mL | > 250 µg/mL | > 250 µg/mL | 60 to 70% | 80 to 85% |  |  |  |  |  |  |
| CC(C)(C)N1CCC(CCl)C(Cl)(Cl)C1=O (stereo not drawn) [2i, 1-(tert-Butyl)-3,3-dichloro-4-(chloromethyl)piperidin-2-one] |  | 0.003% |  | > 250 µg/mL | 1.1 | > 250 µg/mL | > 250 µg/mL | > 250 µg/mL | > 250 µg/mL | > 250 µg/mL | > 250 µg/mL | > 250 µg/mL |  | 70% | ~0.07% | one | 1.1 | one |  |  |
| O=C1CCC(N2CC(CCl)C(Cl)(Cl)C2=O)CC1 (stereo not drawn) [2p] |  | 0.005% |  | > 250 µg/mL |  | > 250 µg/mL | > 250 µg/mL | > 250 µg/mL | > 250 µg/mL | > 250 µg/mL | > 250 µg/mL | > 250 µg/mL | 60 to 70% | 100% | ~0.07% |  | 1.1 | one | could promote the proliferation | could promote the proliferation |
